Experimental data from publication PMC8185074, “Anchor extension: a structure-guided approach to design cyclic peptides targeting enzyme active sites” (Nature Communications, 2021).
Peptide text beside a SMILES is read from it.

Columns and labels:
Format in all cases: biochemical
HDAC1 = molecular target: T1, HDAC1 (Homo sapiens, UniProt Q13547); assay: HDAC1 inhibition, full IC50 measurement (Reaction Biology; fluorogenic p53 peptide RHKK(Ac)AMC); conditions: t1/t2 replicates
T1 construct: purchased Reaction Biology Corporation (assay run by the CRO)
T1 sequence (Q13547 whole entry): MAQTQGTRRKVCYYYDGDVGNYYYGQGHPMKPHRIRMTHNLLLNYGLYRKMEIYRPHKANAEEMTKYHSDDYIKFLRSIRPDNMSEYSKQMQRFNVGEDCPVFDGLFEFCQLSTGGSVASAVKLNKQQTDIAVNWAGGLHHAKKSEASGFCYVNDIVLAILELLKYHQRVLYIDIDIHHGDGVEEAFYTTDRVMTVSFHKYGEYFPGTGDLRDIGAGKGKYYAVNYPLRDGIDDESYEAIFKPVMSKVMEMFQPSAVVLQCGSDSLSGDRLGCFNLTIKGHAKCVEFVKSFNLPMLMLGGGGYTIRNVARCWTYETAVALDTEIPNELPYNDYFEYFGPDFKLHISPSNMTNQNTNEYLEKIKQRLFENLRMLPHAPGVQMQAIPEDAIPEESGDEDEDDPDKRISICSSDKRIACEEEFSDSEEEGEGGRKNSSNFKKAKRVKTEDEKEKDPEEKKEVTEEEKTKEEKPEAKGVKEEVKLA
How it was run: (§1)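 Inhibitory peptides were acoustically dispensed with enzyme, then substrate added; 1 h at 30 °C. Developer stopped reaction; plateau endpoint fluorescence (360/460 nm) gave IC50.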

HDAC8 = molecular target: T2, HDAC8 (Homo sapiens, UniProt Q9BY41); assay: HDAC8 inhibition, full IC50 measurement (Reaction Biology; fluorogenic p53 peptide RHKK(Ac)AMC); conditions: t1/t2 replicates
T2 construct: purchased Reaction Biology Corporation (assay run by the CRO)
T2 sequence (Q9BY41 1-377): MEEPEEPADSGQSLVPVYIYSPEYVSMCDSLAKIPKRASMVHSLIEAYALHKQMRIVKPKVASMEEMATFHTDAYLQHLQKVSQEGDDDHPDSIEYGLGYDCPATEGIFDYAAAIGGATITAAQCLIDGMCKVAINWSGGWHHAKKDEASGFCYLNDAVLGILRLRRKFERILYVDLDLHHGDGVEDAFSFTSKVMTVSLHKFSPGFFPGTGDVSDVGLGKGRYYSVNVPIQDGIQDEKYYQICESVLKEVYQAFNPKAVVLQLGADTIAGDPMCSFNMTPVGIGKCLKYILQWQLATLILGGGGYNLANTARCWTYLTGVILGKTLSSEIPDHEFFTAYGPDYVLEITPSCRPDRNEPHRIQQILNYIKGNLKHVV
How it was run: as §1

HDAC2 = molecular target: T3, HDAC2 (Homo sapiens, UniProt Q92769); assay: HDAC2 inhibition, full IC50 measurement (Reaction Biology; fluorogenic p53 peptide RHKK(Ac)AMC)
T3 construct: purchased Reaction Biology Corporation (assay run by the CRO)
T3 sequence (Q92769 whole entry): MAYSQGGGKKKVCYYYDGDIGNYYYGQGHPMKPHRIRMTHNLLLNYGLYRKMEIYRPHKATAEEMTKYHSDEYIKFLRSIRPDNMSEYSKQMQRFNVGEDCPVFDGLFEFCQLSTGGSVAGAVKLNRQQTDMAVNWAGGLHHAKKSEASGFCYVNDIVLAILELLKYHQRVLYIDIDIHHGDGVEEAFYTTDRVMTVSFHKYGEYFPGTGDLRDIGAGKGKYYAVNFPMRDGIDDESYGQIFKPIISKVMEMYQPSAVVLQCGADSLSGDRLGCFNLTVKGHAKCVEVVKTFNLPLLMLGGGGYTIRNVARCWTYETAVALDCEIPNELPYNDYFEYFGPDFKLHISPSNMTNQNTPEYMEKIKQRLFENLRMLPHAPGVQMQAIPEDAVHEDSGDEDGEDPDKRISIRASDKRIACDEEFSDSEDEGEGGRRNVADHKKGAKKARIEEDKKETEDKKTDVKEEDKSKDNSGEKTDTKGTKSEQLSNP
How it was run: as §1

## N=C(N)NCCC[C@@H]1NC(=O)[C@@H](CCCNC(=N)N)NC(=O)[C@H]2CCCN2C(=O)[C@@H](Cc2c[nH]cn2)NC(=O)[C@H](Cc2ccc(O)cc2)NC(=O)[C@H](CCCCCS)NC(=O)[C@H](CCc2ccccc2)NC(=O)[C@@H](CO)NC(=O)[C@H](CC(=O)O)NC1=O [des3.3.1, SHA-Tyr-dHis-dPro-dArg-Arg-Asp-dSer-C27] (HELM PEPTIDE1{[O=C([C@H](CCCCCS)N[*:1])[*:2]].Y.[dH].[dP].[dR].R.D.[dS].[O=C([C@H](CCc1ccccc1)N[*:1])[*:2]]}$PEPTIDE1,PEPTIDE1,1:R1-9:R2$$$V2.0)
HDAC1; peptide conc. 1.00E-06 M, listed as des3.3.1_t1
  HDAC1 activity raw data (signal): 15410
HDAC1; peptide conc. 1.00E-06 M, listed as des3.3.1_t2
  HDAC1 activity raw data (signal): 7555
HDAC1; peptide conc. 1.11E-07 M, listed as des3.3.1_t1
  HDAC1 activity raw data (signal): 112128
HDAC1; peptide conc. 1.11E-07 M, listed as des3.3.1_t2
  HDAC1 activity raw data (signal): 105674
HDAC1; peptide conc. 1.23E-08 M, listed as des3.3.1_t1
  HDAC1 activity raw data (signal): 518542
HDAC1; peptide conc. 1.23E-08 M, listed as des3.3.1_t2
  HDAC1 activity raw data (signal): 461507
HDAC1; peptide conc. 1.37E-09 M, listed as des3.3.1_t1
  HDAC1 activity raw data (signal): 889775
HDAC1; peptide conc. 1.37E-09 M, listed as des3.3.1_t2
  HDAC1 activity raw data (signal): 866345
HDAC1; peptide conc. 1.52E-10 M, listed as des3.3.1_t1
  HDAC1 activity raw data (signal): 1024825
HDAC1; peptide conc. 1.52E-10 M, listed as des3.3.1_t2
  HDAC1 activity raw data (signal): 1088311
HDAC1; peptide conc. 3.33E-07 M, listed as des3.3.1_t1
  HDAC1 activity raw data (signal): 46006
HDAC1; peptide conc. 3.33E-07 M, listed as des3.3.1_t2
  HDAC1 activity raw data (signal): 42579
HDAC1; peptide conc. 3.70E-08 M, listed as des3.3.1_t1
  HDAC1 activity raw data (signal): 265387
HDAC1; peptide conc. 3.70E-08 M, listed as des3.3.1_t2
  HDAC1 activity raw data (signal): 253770
HDAC1; peptide conc. 4.12E-09 M, listed as des3.3.1_t1
  HDAC1 activity raw data (signal): 789498
HDAC1; peptide conc. 4.12E-09 M, listed as des3.3.1_t2
  HDAC1 activity raw data (signal): 714925
HDAC1; peptide conc. 4.57E-10 M, listed as des3.3.1_t1
  HDAC1 activity raw data (signal): 1015951
HDAC1; peptide conc. 4.57E-10 M, listed as des3.3.1_t2
  HDAC1 activity raw data (signal): 1019110
HDAC1; peptide conc. 5.08E-11 M, listed as des3.3.1_t1
  HDAC1 activity raw data (signal): 1072870
HDAC1; peptide conc. 5.08E-11 M, listed as des3.3.1_t2
  HDAC1 activity raw data (signal): 1116290
HDAC8; peptide conc. 1.00E-05 M, listed as des3.3.1_t1
  HDAC8 activity raw data (signal): 1764805
HDAC8; peptide conc. 1.00E-05 M, listed as des3.3.1_t2
  HDAC8 activity raw data (signal): 2650341
HDAC8; peptide conc. 1.11E-06 M, listed as des3.3.1_t1
  HDAC8 activity raw data (signal): 12709203
HDAC8; peptide conc. 1.11E-06 M, listed as des3.3.1_t2
  HDAC8 activity raw data (signal): 10450749
HDAC8; peptide conc. 1.23E-07 M, listed as des3.3.1_t1
  HDAC8 activity raw data (signal): 26946160
HDAC8; peptide conc. 1.23E-07 M, listed as des3.3.1_t2
  HDAC8 activity raw data (signal): 26450742
HDAC8; peptide conc. 1.37E-08 M, listed as des3.3.1_t1
  HDAC8 activity raw data (signal): 39769433
HDAC8; peptide conc. 1.37E-08 M, listed as des3.3.1_t2
  HDAC8 activity raw data (signal): 37609928
HDAC8; peptide conc. 1.52E-09 M, listed as des3.3.1_t1
  HDAC8 activity raw data (signal): 46887256
HDAC8; peptide conc. 1.52E-09 M, listed as des3.3.1_t2
  HDAC8 activity raw data (signal): 44277806
HDAC8; peptide conc. 3.33E-06 M, listed as des3.3.1_t1
  HDAC8 activity raw data (signal): 5825269
HDAC8; peptide conc. 3.33E-06 M, listed as des3.3.1_t2
  HDAC8 activity raw data (signal): 6935130
HDAC8; peptide conc. 3.70E-07 M, listed as des3.3.1_t1
  HDAC8 activity raw data (signal): 21428540
HDAC8; peptide conc. 3.70E-07 M, listed as des3.3.1_t2
  HDAC8 activity raw data (signal): 18809141
HDAC8; peptide conc. 4.12E-08 M, listed as des3.3.1_t1
  HDAC8 activity raw data (signal): 34070523
HDAC8; peptide conc. 4.12E-08 M, listed as des3.3.1_t2
  HDAC8 activity raw data (signal): 34526681
HDAC8; peptide conc. 4.57E-09 M, listed as des3.3.1_t1
  HDAC8 activity raw data (signal): 42350569
HDAC8; peptide conc. 4.57E-09 M, listed as des3.3.1_t2
  HDAC8 activity raw data (signal): 43646566
HDAC8; peptide conc. 5.08E-10 M, listed as des3.3.1_t1
  HDAC8 activity raw data (signal): 45458566
HDAC8; peptide conc. 5.08E-10 M, listed as des3.3.1_t2
  HDAC8 activity raw data (signal): 46659013
HDAC2; Conc. 1.00E-06 M, t1
  HDAC2 activity raw data (signal): 33408
HDAC2; Conc. 1.00E-06 M, t2
  HDAC2 activity raw data (signal): 20115
HDAC2; Conc. 1.11E-07 M, t1
  HDAC2 activity raw data (signal): 236730
HDAC2; Conc. 1.11E-07 M, t2
  HDAC2 activity raw data (signal): 242180
HDAC2; Conc. 1.23E-08 M, t1
  HDAC2 activity raw data (signal): 774356
HDAC2; Conc. 1.23E-08 M, t2
  HDAC2 activity raw data (signal): 764329
HDAC2; Conc. 1.37E-09 M, t1
  HDAC2 activity raw data (signal): 1033572
HDAC2; Conc. 1.37E-09 M, t2
  HDAC2 activity raw data (signal): 1142758
HDAC2; Conc. 1.52E-10 M, t1
  HDAC2 activity raw data (signal): 1093848
HDAC2; Conc. 1.52E-10 M, t2
  HDAC2 activity raw data (signal): 1228270
HDAC2; Conc. 3.33E-07 M, t1
  HDAC2 activity raw data (signal): 99662
HDAC2; Conc. 3.33E-07 M, t2
  HDAC2 activity raw data (signal): 91701
HDAC2; Conc. 3.70E-08 M, t1
  HDAC2 activity raw data (signal): 494195
HDAC2; Conc. 3.70E-08 M, t2
  HDAC2 activity raw data (signal): 473509
HDAC2; Conc. 4.12E-09 M, t1
  HDAC2 activity raw data (signal): 948142
HDAC2; Conc. 4.12E-09 M, t2
  HDAC2 activity raw data (signal): 1005576
HDAC2; Conc. 4.57E-10 M, t1
  HDAC2 activity raw data (signal): 1113632
HDAC2; Conc. 4.57E-10 M, t2
  HDAC2 activity raw data (signal): 1221209
HDAC2; Conc. 5.08E-11 M, t1
  HDAC2 activity raw data (signal): 1186904
HDAC2; Conc. 5.08E-11 M, t2
  HDAC2 activity raw data (signal): 1232500
